Converted amounts (≈) assume the structure as drawn. The source made the active and inactive calls. The calls are words filed in the database; no cut-off is given here.
How the values were obtained:
[1] = Cytotoxicity against human liver cancer cells assessed as cell viability at 10 ug/ml by CCK8 method relative to control; type: functional; conditions: read-out: Activity
[2] = Cytotoxicity against human endothelial cells assessed as cell viability at 10 ug/ml by CCK8 method relative to control; type: toxicity, cell-based; conditions: at 10 µg/mL, read-out: Activity
Pseudomonas aeruginosa [3] = test: Antibacterial activity against Pseudomonas aeruginosa ATCC 27853 assessed as inhibition of bacterial growth; type: functional
Calf thymus DNA [4] = test: Binding affinity to calf thymus DNA assessed as reduction in fluorescence intensity of acridine orange-DNA complex formation by measuring […] by competitive binding assay; type: nucleic-acid assay; conditions: Bos taurus; DDE = dose-dependent effect
Acinetobacter baumannii [5] = test: Anti- biofilm activity against Acinetobacter baumannii assessed as decrease in biofilm viability at 2 ug/ml by resazurin dye based assay relative to control; type: functional; conditions: dose 2 µg/ml
Escherichia coli [6] = test: Antibacterial activity against Escherichia coli assessed as inhibition of bacterial growth; type: functional
Pseudomonas aeruginosa [7] = test: Antibacterial activity against Pseudomonas aeruginosa assessed as inhibition of bacterial growth; type: functional
Klebsiella pneumoniae = test: Antibacterial activity against Klebsiella pneumoniae assessed as inhibition of bacterial growth; type: functional
Enterococcus faecalis = test: Antibacterial activity against Enterococcus faecalis assessed as inhibition of bacterial growth; type: functional
Acinetobacter baumannii [8] = test: Induction of ROS production in Acinetobacter baumannii by DCFH-DA staining based fluorescence analysis; type: functional; conditions: DDE = dose-dependent effect
Cell membrane [9] = test: Induction of outer membrane permeabilization in Acinetobacter baumannii assessed as increase in fluorescence intensity at MIC by NPN-dye based fluorescence assay; type: subcellular; conditions: time <= 120.0 min
Staphylococcus aureus [10] = test: Antibacterial activity against Staphylococcus aureus assessed as inhibition of bacterial growth; type: functional
Acinetobacter baumannii [11] = test: Induction of ROS production in Acinetobacter baumannii assessed as fold change at 16 times MIC by DCFH-DA staining based fluorescence analysis; type: functional
Cell membrane [12] = test: Induction of cell membrane destruction in Acinetobacter baumannii assessed as reduction in metabolic activity; type: subcellular; conditions: DDE = dose-dependent effect
Cell membrane [13] = test: Induction of cell membrane depolarization in Acinetobacter baumannii assessed as increase in fluorescence intensity at MIC by DiSC35 dye-based fluorescence assay; type: subcellular; conditions: time <= 60.0 min, TDE = time-dependent effect
Cell membrane [14] = test: Induction of inner membrane permeabilization in Acinetobacter baumannii assessed as increase in fluorescence intensity by propidium iodide staining based fluorescence analysis; type: subcellular; conditions: DDE = dose-dependent effect
[15] = Hemolytic activity in human RBC assessed as hemolysis rate at 64 times MIC relative to control; type: toxicity, cell-based, Erythrocyte; conditions: red blood cells (erythrocytes), read-out: Activity
Cell membrane [16] = test: Induction of inner membrane permeabilization in Acinetobacter baumannii assessed as increase in red fluorescence intensity by fluorescence microscopic analysis
Cell membrane [17] = test: Induction of cell membrane damage in Acinetobacter baumannii assessed as increase in nucleic acid leakage by measuring fold increase in absorbance at 8 times MIC by spectrophotometry; type: subcellular
Staphylococcus aureus [18] = test: Antibacterial activity against Staphylococcus aureus ATCC 25923 assessed as inhibition of bacterial growth; type: functional
Acinetobacter baumannii [19] = test: Antibacterial activity against Acinetobacter baumannii assessed fold increase in malondialdehyde production measured at upto 16 times MIC; type: functional
Acinetobacter baumannii [20] = test: Antibacterial activity against Acinetobacter baumannii assessed as reduction in GSH activity by Ellman's method; type: functional, organism-based; conditions: DDE = dose-dependent effect
Staphylococcus aureus [21] = test: Antibacterial activity against methicillin resistant Staphylococcus aureus N315 assessed as inhibition of bacterial growth; type: functional
Escherichia coli [22] = test: Antibacterial activity against Escherichia coli ATCC 25922 assessed as inhibition of bacterial growth; type: functional
Cell membrane [23] = test: Induction of cell membrane damage in Acinetobacter baumannii assessed as increase in protein leakage; type: subcellular
Calf thymus DNA [24] = test: Binding affinity to calf thymus DNA assessed as hypochromic shift by UV-vis spectrophotometric analysis; type: nucleic-acid assay; conditions: Bos taurus
Acinetobacter baumannii [25] = test: Antibacterial activity against Acinetobacter baumannii assessed as inhibition of bacterial growth; type: functional
Staphylococcus aureus [26] = test: Antibacterial activity against Staphylococcus aureus ATCC 29213 assessed as inhibition of bacterial growth; type: functional

Compound | MIC (Pseudomonas aeruginosa [3]) [µg/mL] | MIC (Escherichia coli [6]) [µg/mL] | MIC (Pseudomonas aeruginosa [7]) [µg/mL] | MIC (Klebsiella pneumoniae) [µg/mL] | MIC (Enterococcus faecalis) [µg/mL] | MIC (Staphylococcus aureus [10]) [µg/mL] | MIC (Staphylococcus aureus [18]) [µg/mL] | MIC (Staphylococcus aureus [21]) [µg/mL] | MIC (Escherichia coli [22]) [µg/mL] | MIC (Acinetobacter baumannii [25]) [µg/mL] | MIC (Staphylococcus aureus [26]) [µg/mL] | further results
Cc1cc(=O)oc2cc(/N=C3/S/C(=C\c4c[nH]c5ccccc45)C(=O)N3CCO)ccc12 | 32 (≈ 71.8 µM) | 0.25 (≈ 0.561 µM) | 256 (≈ 575 µM) | 0.5 (≈ 1.12 µM) | 0.25 (≈ 0.561 µM) | 2 (≈ 4.49 µM) | 0.25 (≈ 0.561 µM) | 0.25 (≈ 0.561 µM) | 1 (≈ 2.24 µM) | 0.25 (≈ 0.561 µM) | 0.25 (≈ 0.561 µM) | viability at 10 µg/mL [1]: 47%; viability at 10 ug/ml [2]: 75%; Activity (Calf thymus DNA [4]): Dde; Activity (Acinetobacter baumannii [5]): 45%; Activity (Acinetobacter baumannii [8]): Dde; Activity (Cell membrane [9]): Active; fold change (FC) (Acinetobacter baumannii [11]): 5.3; Activity (Cell membrane [12]): Dde; Activity (Cell membrane [13]): Tde; Activity (Cell membrane [14]): Dde; hemolysis at 64 times MIC [15]: < 5%; Activity (Cell membrane [16]): Active; fold change (FC) (Cell membrane [17]): 3.8; fold change (FC) (Acinetobacter baumannii [19]): 3; Activity (Acinetobacter baumannii [20]): Dde; Activity (Cell membrane [23]): Active; Activity (Calf thymus DNA [24]): Active
Cc1cc(=O)oc2cc(/N=C3/S/C(=C\c4csc5ccccc45)C(=O)N3CCO)ccc12 | 64 (≈ 138 µM) | 128 (≈ 277 µM) | 128 (≈ 277 µM) | 32 (≈ 69.2 µM) | 64 (≈ 138 µM) | 128 (≈ 277 µM) | 256 (≈ 553 µM) | 128 (≈ 277 µM) | 64 (≈ 138 µM) | 8 (≈ 17.3 µM) | 128 (≈ 277 µM) | 
Cc1ccc(/C=C2\S/C(=N/c3ccc4c(C)cc(=O)oc4c3)N(CCO)C2=O)c(C)c1 | 256 (≈ 589 µM) | 64 (≈ 147 µM) | 16 (≈ 36.8 µM) | 128 (≈ 295 µM) | 128 (≈ 295 µM) | 64 (≈ 147 µM) | 64 (≈ 147 µM) | 128 (≈ 295 µM) | 128 (≈ 295 µM) | 1 (≈ 2.3 µM) | 64 (≈ 147 µM) | 
Cc1cc(=O)oc2cc(/N=C3/S/C(=C\c4cccs4)C(=O)N3CCO)ccc12 | 1 (≈ 2.42 µM) | 32 (≈ 77.6 µM) | 16 (≈ 38.8 µM) | 64 (≈ 155 µM) | 4 (≈ 9.7 µM) | 4 (≈ 9.7 µM) | 32 (≈ 77.6 µM) | 128 (≈ 310 µM) | 32 (≈ 77.6 µM) | 1 (≈ 2.42 µM) | 1 (≈ 2.42 µM) | 
